In patent US20240325375A1, “Effect of YEL002 on Psychological and Psychiatric Factors in Health and Disease” (RadMit, Inc., priority 2023, published 2024):

Tests used:
[1] = Effects on pets (cats); format: in vivo; details: cats after treatment
Protocol: Effects on pets. My cats, Susie and Celine were the sweetest cats before I started to treat them. But after treatment they are now even sweeter, cuddlier and more attached to me, and sleep 2 hours longer per day. I call them lap cats now like the dog pendant. They lost loofiness, shyness to new visitors, quietly sit next to each other and licking each other or me and just want to sit close to me or on my lap and be petted. Before after 5 to 10 minutes of petting they just left and did something else. Now they stay for hours and the only reason for them to leave is when I stop petting them. And they are even better at play and jump exactly, landing where they intend to, don't bump into things and catch the toys the first time every time.

[2] = test system: ATM-deficient mice; assay: Lifespan of ATM-deficient mice injected weekly; format: in vivo; details: ATM-deficient mice injected every week during most of their lifespans
From the text: It is speculated that this is because the primary screen applied was against radiation-induced toxicity as well as genotoxicity which causes cancer. Researchers involved in other labs were screening only against radiation-induced toxicity and thereby cells with genotoxicity survive and cause even more cancer and late effects of which surviving mice died. In our experiments, however, a screen against radiation induced toxicity as well as genetic instability made sure that the surviving cells also had no genetic instability which otherwise would have led to an increase in cancer and other diseases. In the experiment, ATM-deficient mice injected every week with YEL002 during most of their lifespans lived 33% longer than without injections.

[3] = Clinical trial on psychological, psychiatric and memory loss endpoints; format: in vivo, human
From the text: 7 less argumentative, 10 less angry or aggressive. 8 experienced better quality sleep. 8 needed less sleep and 5 became nicer. It gets rid of addictions and reduces symptoms of depression and Alzheimer's disease.

[4] = test system: Covid virus; format: in vivo; details: compared with without YEL002
[5] = test system: three different cancer cell lines; assay: Radiation killing of cancer cell lines; format: cell-based
From the text: (§1) It is also observed that three different cancer cell lines were not protected from radiation killing by YEL002, which indicates a use in radiation oncology or chemotherapy where the tumor can still be killed by the radiation, or chemotherapy but YEL002 protects the rest of the body from radiation or chemotherapy damage, and inhibits secondary carcinogenesis.

[6] = test system: human keratinocytes; assay: Proteomics study of protein induction; format: cell-based
From the text: In terms of mechanism of action in a proteomics study, the chemical was capable of inducing 244 different proteins in human keratinocytes, which comprised anti-inflammatory proteins, DNA repair proteins, and 9 neuroprotective proteins. It is known that turtles at the Galapagos Islands live 150 or more years without cancer and have multiple copies of DNA repair genes and anti-inflammatory genes. The compound boosts the expression of these genes in mammals. Since it induces DNA repair and is anti-inflammatory, it may be possible to prevent and cure many diseases and extend the life.
A direct effect of YEL002 on the autonomic or sympathetic nervous system, the flight or fight response, which can explain all the effects that we find.

[7] = Side effects and blood thinning; format: in vivo
Protocol: Thus, if nose bleeding occurs at that dose when blowing one's nose, one should reduce the dose to half and nose bleeding will stop within about 12 hours or less. Once the flue or sneezing is gone one may increase the dose again.
as §1

[8] = test system: irradiated mice; assay: Radiation mitigation in mice irradiated with an LD100; format: in vivo
[9] = Solubility of the powder; format: physicochemical; details: off-white powder
Protocol: The compound takes the appearance of an off-white powder and is fat soluble. One takes an eighth teaspoon or about 0.5 g dissolved in a couple of teaspoons of oil. In an exemplary embodiment, it is dissolved in grape seed or any other appropriate oil and taken twice a day, once in the morning and once in the evening. It is easy to use and has almost no taste.

[10] = test system: lymphoma; assay: Lymphoma incidence in mice (National Institute of Health experiment); format: in vivo; details: radiation exposure caused 90% to develop lymphoma without treatment
Protocol: In another experiment at the National Institute of Health, in other mice after radiation exposure which caused 90% of them to develop lymphoma, there was a reduction of the lymphoma incidence to 40% and the spontaneous frequency was reduced from 10-20% down to 0%. […] This was observed after treating mice right after birth, if humans are treated later in life it is possible that only 10 or 5 years are added and probably more for DNA repair deficient diseases like ataxia telangiectasia (ATM) which is still very substantial, especially, since it treats and reduces the likelihood of many diseases.

[11] = Case studies and patient testimonials; format: in vivo, human
[12] = PHQ-9 assessment of a patient with recalcitrant depression; format: in vivo, human
Protocol: If they work at all, improvements take at least 4 weeks and may increase patient weight. In this patient's assessment using a standard PHQ-9 form, the patient was assessed before and after treatment with YEL002. The PHQ-9 form assigns a numerical value corresponding to the level of depression, meaning a higher level means increased depression values. In this patient, before treatment, the values was in 3 different instances 6, 9 and 15 with designation of “very difficult” and “extremely difficult” and they cried 3 times during 30 minutes of our interview and said they hate the world. Before the test indicates mild depression to moderately severe depression. […] Since there is no lower designation this indicates no depression. This is also called snapping out of depression, which was a technical term in the past because it was not observed before now.

[13] = heavy smoker, one week after treatment
[14] = subject on chemotherapy, one week on YEL002

COc1ccc2cc(-c3nc4ccc(C)cn4c3NCc3ccco3)c(=O)[nH]c2c1 [YEL002]
cats sleep longer [1]: 2 hours per day | lived longer than without injections [2]: 33% | became nicer [3]: 5 people | experienced better quality sleep [3]: 8 people | felt more energetic [3]: 10 people | less angry or aggressive [3]: 10 people | less argumentative [3]: 7 people | less combative [3]: 7 people | less tired [3]: 5 people | needed less sleep [3]: 8 people | clearance of Covid virus [4]: cleared faster | protection of cancer cell lines from radiation killing [5]: not protected | number of different proteins induced ([6]; human keratinocytes, anti-inflammatory, DNA repair and neuroprotective proteins): 244 proteins | number of neuroprotective proteins/functions induced ([6]; proteomics): 9 | blood-thinning; nose bleeding at the dose ([7]; about 1 gram per day, nose bleeding stops within about 12 hours or less at half dose): blood-thinning properties | side effects ([7]; in vivo): no side effects | survival of irradiated mice ([8]; LD100 radiation, IP injection 24 hours after radiation and another four doses in 24 hours intervals, without it 100% died after 10 to 15 days): 100% | life span of surviving irradiated mice ([8]; many of the surviving mice, normal life span): more than 2 years | solubility [9]: fat soluble | lymphoma incidence after radiation exposure [10]: 40% | memory of patient with Alzheimer's disease ([11]; after 4 weeks treatment): improved | cholesterol ([11]; after two days of treatment): normal | symptoms of coughing and diarrhea ([11]; case study, used for eight weeks): reduced symptoms of coughing and diarrhea | allergic attacks such as sneezing and runny nose ([11]; dissolved in oil, nose spray 2-4 times a day): completely prevented | hair loss [11, 13]: completely stopped | smoker's legs oozing lymph liquid [11, 13]: completely healed | astigmatism fixed ([11]; in only 4 weeks): 1 | eye-sight deficiency fixed ([11]; in only 4 weeks): 2 diopters | coughing and wheezing symptoms post-chemotherapy ([11]; one hour after treatment): completely alleviated | blood ([11]; patient testimonial): thinner | major arguments with spouse ([11]; patient with long COVID19 and diabetes, 5-10 before treatment): 0-1 per day | memory of another person ([11]; remembers where they left their car): much improved | vomiting under chemotherapy [11, 14]: completely stopped | weight gained [11, 14]: 2 kg | levels of liver damage ([11]; twice elevated for 25 years, after two days of treatment): normal and below the cutoff | alcohol addiction ([11]; two alcoholics): completely cured | periodontics or receding gums ([11]; user study): healed | PHQ-9 value after treatment ([12]; after one week on YEL002, the following two weeks, before treatment 6, 9 and 15): 3 | PHQ-9 difficulty designation after treatment ([12]; before treatment very difficult and extremely difficult): somewhat difficult | recalcitrant depression outcome ([12]; person with depression for 20 years, within one week): completely cured
